Measurements as given in patent publication US20240110915A1, “METHODS, PRODUCTS AND SYSTEMS FOR PROGNOSIS OF SUBJECTS SUFFERING FROM MULTIPLE MYELOMA” (University of South Australia, priority 2020, published 2024).
Blank lines part the entries; values can stand above or below the molecule they belong to.

What was measured:
[1] = tested on: KMS-11 human multiple myeloma cells; assay: Cell viability by AnnexinV staining, flow cytometric analysis; type: cell-based; details: overnight exposure, 4 nM
Description: (§1) Lentiviral vectors (pGIPZ) expressing DSG2-shRNA and non-silencing control-shRNA were obtained from Open Biosystem (Dharmacon) and cloned into the pGIPZ expression plasmid: 5′-TGGATGTCAATGACAATAT-3′ (SEQ ID NO: 2; DSG2-shRNA60); 5′-CCAGTGTTCTACCTAAATA-3′ (SEQ ID NO:3; DSG2-shRNA62); and 5′-[…]-3′ (SEQ ID NO: 4; non-silencing shRNA). Replication incompetent lentiviral particles were generated by transiently co-transfecting HEK293T cells with ViraPower Lentiviral Support Kit (Invitrogen) and pGIPZ-shRNA vectors using Lipofectamine 2000 (Invitrogen). Lentiviral supernatant was harvested 72 hours post-transfection and used to transduce 1×10^5 KMS-11 cells that were seeded in a 6-well plate, in the presence of 4 μg/mL polybrene. Puromycin (1 μg/mL) was continually added to maintain culture of cells with the transduced vectors and DSG2 expression was routinely checked using flow cytometry and western blot. Cell without and with DSG2 KD were cultured with increasing concentrations of Bortezomib (2-4 nM, (Janssen Cilag, New Brunswick NJ)) and after 12 hours the cell viability was determined using AnnexinV staining using flow cytometric analysis.

[2] = tested on: KMS-11 cells with stable knockdown of DSG2 (DSG2 shRNA); assay: Cell viability by AnnexinV staining, cells with stable DSG2 knockdown; type: cell-based, human; details: over 12 hours at 2 nM and 4 nM; compared with cells without knockdown
Description: as §1

DSG2 = DSG2 protein knockdown in KMS-11 cells by Western blot; type: cell-based, human; details: stable shRNA expression
Description: Lentiviral vectors (pGIPZ) expressing DSG2-shRNA and non-silencing control-shRNA were obtained from Open Biosystem (Dharmacon). The following shRNA sequences were cloned into the pGIPZ expression plasmid: 5′-TGGATGTCAATGACAATAT-3′ (DSG2-shRNA60) (SEQ ID NO. 2); 5′-CCAGTGTTCTACCTAAATA-3′ (DSG2-shRNA62) (SEQ ID NO. 3); and
5′-[…]-3′ (non-silencing shRNA) (SEQ ID NO. 4). Replication incompetent lentiviral particles were generated by transiently co-transfecting HEK293T cells with ViraPower Lentiviral Support Kit (Invitrogen) and pGIPZ-shRNA vectors using Lipofectamine 2000 (Invitrogen). […]
KMS-11 cells cultured on 100 mm Petri dishes were washed twice with ice-cold PBS and solubilized in RIPA lysis buffer (150 mM NaCl, 50 mM Tris-HCl, pH 7.5, 1% Triton X-100, 1% deoxycholate, 0.1% SDS, and 2 mM EDTA) containing both protease (cOmplete™, Roche) and phosphatase inhibitors (PhosStop™, Roche) for 10 min on ice. The lysates were clarified by centrifugation at 13,000×g for 10 min at 4° C., and protein concentrations determined using the bicinchoninic acid protein assay kit (Pierce). […] After washing, immunoreactivity was detected by using the Odyssey infrared imager (Li-COR). […] Band intensities were quantitated by densitometry using the software associated with the Odyssey infrared imager (Li-COR).

[3] = biological target: human desmoglein 2 (DSG2) (human) (UniProt Q14126); assay: cell-based or functional assay

Molecule: CC(C)C[C@H](NC(=O)[C@H](Cc1ccccc1)NC(=O)c1cnccn1)B(O)O [Bortezomib]
viability of KMS-11 human multiple myeloma cells [1]: reduced | sensitivity to Bortezomib (cell viability) of KMS-11 cells with stable DSG2 knockdown [2]: even further increased sensitivity

Molecule: 5′-CCAGTGTTCTACCTAAATA-3′ [DSG2-shRNA62]
knockdown of DSG2 protein (DSG2): Efficient knockdown

Molecule: 5′-TGGATGTCAATGACAATAT-3′ [DSG2-shRNA60]
knockdown of DSG2 protein (DSG2): Efficient knockdown

reduction in adhesion of KMS-11 cells with DSG2 knockdown (shRNA construct A) to a BMEC-DSG2 monolayer, compared to the NT control cell line [3]: 28.1% | reduction in adhesion of KMS-11 cells with DSG2 knockdown (shRNA construct C) to a BMEC-DSG2 monolayer, compared to the NT control cell line [3]: 35.6%
Molecule: human desmoglein 2 (DSG2) (from UniProt Q14126 50-1118)
